Results: patent publication US20240409584A1, “PEPTIDE HAVING ANTI-AGING ACTIVITY, AND USE THEREOF” (CAREGEN CO., LTD., priority 2021, published 2024)

Experiments:
[1] = system: Col1a1; assay: Col1a1 (collagen) gene expression in fibroblasts, RT-PCR; type: cell-based, mouse; conditions: NIH3T3 cells, peptide 10, 50, 100 μM, 24 hours, serum free DMEM; FIGS. 1A, 1B
Description: (§1) First, NIH3T3 cells (mouse fibroblast cell line) were seeded in a 6-well plate at a cell density of 3×10^5 cell/well, and then the cells were cultured in DMEM medium containing 10% fetal bovine serum (FBS) for 24 hours. The cultured cells were washed once with serum free DMEM medium, and the peptide of the present invention was mixed in 1 mL of the serum free DMEM medium at each of concentrations of 10, 50, and 100 μM, and dispensed into the cells. A positive control (PC) was treated with 5 ng/ml of TGF-B instead of the above peptide. The cells were cultured in a CO: incubator at 37° C. for 24 hours.
(§2) The cultured cells were washed twice with PBS, and RNA was extracted from the cells using easy blue (iNtRON, Cat. No.: 17061, Korea). The amount of RNA extracted was quantified, 1, 000 ng of RNA was added per tube, and RT reaction was performed using a kit (enzynomics, Cat. No.: PT200, Korea). RT-PCR was performed using a PCR kit (enzynomics, Cat. No.: P581T, Korea). The sequences of the primers of collagen, fibronectin, and elastin used in RT-PCR and the sequence of the primer of GAPDH used to compare the total RNA amount of each treatment group are shown in [Table 2].

[2] = system: fibronectin; assay: Fibronectin gene expression in fibroblasts, RT-PCR; type: cell-based, mouse; conditions: NIH3T3 cells, peptide 10, 50, 100 μM, 24 hours, serum free DMEM; FIGS. 1A, 1C
Description: as §1, §2

[3] = system: elastin; assay: Elastin gene expression in fibroblasts, RT-PCR; type: cell-based, mouse; conditions: NIH3T3 cells, peptide 10, 50, 100 μM, 24 hours, serum free DMEM; FIGS. 1A, 1D
Description: as §1, §2

[4] = system: AQP3; assay: AQP3 gene expression in keratinocytes, RT-PCR; type: cell-based; conditions: HaCaT cells, peptide 10, 50, 100 μM, 24 hours; FIGS. 2A, 2B
Description: (§3) First, HaCaT cells were seeded in a 6-well plate at a cell density of 3×10^5 cell/well, and then the cells were cultured in DMEM medium containing 10% fetal bovine serum (FBS) for 24 hours. The cultured cells were washed once with serum free DMEM medium, and then the peptide of the present invention was mixed in 1 mL of the serum free DMEM medium at each of concentrations of 10, 50, and 100 μM, and dispensed into the cells. A positive control (PC) was treated with 100 nM of EGF instead of the above peptide. The cells were cultured in a CO: incubator at 37° C. for 24 hours.
(§4) The cultured cells were washed twice with PBS, and then RNA was extracted from the cells using easy blue (iNtRON, Cat. No.: 17061, Korea). The extracted RNA was subjected to RT reaction using a kit (enzynomics, Cat. No.: RT200, Korea). Thereafter, RT-PCR was performed using a PCR kit (enzynomics, Cat. No.: R581T, Korea). The sequences of the primers of AQP3 and SIRT1 used in RT-PCR and the sequence of the primer of GAPDH used to compare the total RNA amount of each treatment group are shown in [Table 2].

[5] = system: SIRT1; assay: SIRT1 gene expression in keratinocytes, RT-PCR; type: cell-based; conditions: HaCaT cells, peptide 10, 50, 100 μM, 24 hours; FIGS. 2A, 2C
Description: as §3, §4

[6] = system: NIH3T3 cells; assay: Intracellular ROS increased by UVA irradiation, DCFH-DA/FACS; type: cell-based, mouse; conditions: 8 J/cm^2 UVA, peptide 10, 50, 100 μM, 24 hours after irradiation, FIG. 3A
Description: as §3, with “First, NIH3T3 cells and” for “First,”, “5×10^5” for “3×10^5”, “cell/well, respectively,” for “cell/well,”, “50 μM” for “100 nM”, “Trolox” for “EGF”, “peptide.” for “peptide. The cells were cultured in a CO: incubator at 37° C. for 24 hours.”
(§5) The cells were cultured in a CO2 incubator at 37° C. for 1 hour. The medium of the cultured cells was transferred to a tube, 1 ml of PBS was added, and then the NIH3T3 cells were irradiated with 8 J/cm^2 of UVA and the HaCaT cells were irradiated with 15 mJ/cm^2 of UVB using a UV irradiator (VILBER LOURMAT, Cat No.: 3102-BSU, France). After removing PBS, 900 μL of the medium transferred to the tube was dispensed, and culture was performed in a CO2 incubator at 37° C. for 24 hours. After treatment with 10 μM of dichloro-dihydro-fluorescein diacetate (DCFH-DA), wrapping with a foil was performed, and culture was performed in a CO2 incubator at 37° C. for 30 minutes. […] After centrifugation, the cells were washed with PBS, and a fluorescence value was measured through FACS.

[7] = system: HaCaT cells; assay: Intracellular ROS increased by UVB irradiation, DCFH-DA/FACS; type: cell-based; conditions: 15 mJ/cm^2 UVB, peptide 10, 50, 100 μM, 24 hours after irradiation, FIG. 3B
Description: as §3, with “First, NIH3T3 cells and” for “First,”, “5×10^5” for “3×10^5”, “cell/well, respectively,” for “cell/well,”, “50 μM” for “100 nM”, “Trolox” for “EGF”, “peptide.” for “peptide. The cells were cultured in a CO: incubator at 37° C. for 24 hours.”
as §5

[8] = system: Colla1; assay: Col1a1 gene expression decreased by UV in fibroblasts, RT-PCR; type: cell-based, mouse; conditions: NIH3T3 cells, 6 J/cm^2 UVA, peptide 10, 50, 100 μM, 6 hours after irradiation; FIGS. 4A, 4B
Description: (§6) First, NIH3T3 cells were seeded in a 6-well plate at a cell density of 5×10^5 cell/well, and then the cells were cultured in DMEM medium containing 10% fetal bovine serum (FBS) for 24 hours. The cultured cells were washed once with serum free DMEM medium, and then the peptide of the present invention was mixed in 1 mL of the serum free DMEM medium at each of concentrations of 10, 50, and 100 μM, and dispensed into the cells. A positive control (PC) was treated with 2.5 mM of N-acetylcysteine or 50 μM of Trolox instead of the above peptide. The cells were cultured in a CO: incubator at 37° C. for 1 hour.
(§7) The medium of the cultured cells was transferred to a tube (e-tube), 1 ml of PBS was added, and irradiation was performed with 6 J/cm^2 of UVA using a UV irradiator (VILBER LOURMAT, Cat No.: 3102-BSU, France). After removing PBS, 900 μL of the medium transferred to the tube was dispensed, and culture was performed in a CO2 incubator at 37° C. for 6 hours. The cultured cells were washed twice with PBS, and then RNA was extracted from the cells using easy blue (iNtRON, Cat. No.: 17061, Korea). The amount of RNA extracted was quantified, 1,000 ng of RNA was added per tube, and RT reaction was performed using a kit (enzynomics, Cat. No.: RT200, Korea). Thereafter, RT-PCR was performed using a PCR kit (enzynomics, Cat. No.: R581T, Korea). […]

[9] = system: fibronectin; assay: Fibronectin gene expression decreased by UV in fibroblasts, RT-PCR; type: cell-based, mouse; conditions: NIH3T3 cells, 6 J/cm^2 UVA, peptide 10, 50, 100 μM, 6 hours after irradiation; FIGS. 4A, 4C
Description: as §6, §7

[10] = system: MMP-1; assay: MMP-1 expression increased by UV in fibroblasts, western blot; type: cell-based, mouse; conditions: NIH3T3 cells, 6 J/cm^2 UVA, peptide 10, 50, 100 μM, 24 hours after irradiation; FIG. 5A
Description: (§8) First, NIH3T3 cells and HaCaT cells were seeded in a 6-well plate at a cell density of 5×10^5 cell/well, respectively, and then the cells were cultured in DMEM medium containing 10% fetal bovine serum (FBS) for 24 hours. The cultured cells were washed once with serum free DMEM medium, and the peptide of the present invention was mixed in 1 mL of the serum free DMEM medium at each of concentrations of 10, 50, and 100 μM, and dispensed into the cells. A positive control (PC) was treated with 25 and 50 µM of Trolox instead of the above peptide.
(§9) The cells were cultured in a CO2 incubator at 37° C. for 1 hour. The medium of the cultured cells was transferred to a tube (e-tube), 1 ml of PBS was added, and then the NIH3T3 cells were irradiated with 6 J/cm^2 of UVA and the HaCaT cells were irradiated with 15 mJ/cm^2 of UVB using a UV irradiator (VILBER LOURMAT, Cat No.: 3102-BSU, France). After removing PBS, 900 μL of the medium transferred to the tube was added, and culture was performed in a CO2 incubator at 37° C. for 24 hours. The medium of the cultured cells was transferred to a tube, the cells were washed twice with PBS, and then a cell lysis buffer was added to lyse the cells. A sample was prepared by treating the cells with 5× sample buffer, and then SDS-PAGE was performed using 10% SDS-PAGE gel. The proteins isolated through SDS-PAGE were transferred to a PVDF membrane. […]

[11] = system: MMP-1; assay: MMP-1 expression increased by UV in keratinocytes, western blot; type: cell-based; conditions: HaCaT cells, 15 mJ/cm^2 UVB, peptide 10, 50, 100 μM, 24 hours after irradiation; FIG. 5B
Description: as §8, §9

[12] = system: MMP-2; assay: MMP-2 activity increased by UV in fibroblasts, gelatin zymography; type: cell-based, mouse; conditions: fibroblasts (NIH3T3), 6 J/cm^2 UVA, peptide 10, 50, 100 μM, 6 hours after irradiation; FIG. 6A
[13] = system: MMP-9; assay: MMP-9 activity increased by UV in keratinocytes, gelatin zymography; type: cell-based; conditions: keratinocytes (HaCaT), 15 mJ/cm^2 UVB, peptide 10, 50, 100 μM, 6 hours after irradiation; FIG. 6B

Sequence: DSSPLRSPSYAS [SEQ ID NO: 1]
- expression of the collagen gene [1]: gradually increased as a concentration of the peptide increased
- expression of the fibronectin gene [2]: gradually increased as a concentration of the peptide increased
- expression of the elastin gene [3]: gradually increased as a concentration of the peptide increased
- mRNA level of AQP3 [4]: increased
- mRNA level of SIRT1 [5]: increased
- intracellular reactive oxygen species level increased by UV irradiation [6]: decreased
- intracellular reactive oxygen species level increased by UV irradiation [7]: decreased
- mRNA level of Colla1 decreased by UV irradiation [8]: increased again
- mRNA level of fibronectin decreased by UV irradiation [9]: increased again
- expression of MMP-1 increased by UV irradiation [10]: inhibited
- expression of MMP-1 increased by UV irradiation [11]: inhibited
- activity of MMP-2 protein increased by ultraviolet rays [12]: inhibited
- activity of MMP-9 protein increased by ultraviolet rays [13]: inhibited
